# Test results published in ChEMBL document CHEMBL4411309, “Discovery of 2-substituted-N-(3-(3,4-dihydroisoquinolin-2(1H)-yl)-2-hydroxypropyl)-1,2,3,4-tetrahydroisoquinoline-6-carboxamide as potent and selective protein arginine methyltransferases 5 inhibitors: Design, synthesis and biological evaluation” (Eur J Med Chem, 2019).
# Legend:
# PRMT5/MEP50 complex = PRMT5/MEP50 complex (Homo sapiens, UniProt O14744); assay: Inhibition of recombinant human N-terminal FLAG-tagged PRMT5 (2 to end residues)/human N-terminal His-tagged MEP50 (2 to end residues) expressed in HEK293F cells using H4 peptide as substrate preincubated for 15 mins followed by substrate and [3H]SAM addition and measured after 1 hr by scintillation counting method
# Sequence of PRMT5/MEP50 complex (O14744 whole entry): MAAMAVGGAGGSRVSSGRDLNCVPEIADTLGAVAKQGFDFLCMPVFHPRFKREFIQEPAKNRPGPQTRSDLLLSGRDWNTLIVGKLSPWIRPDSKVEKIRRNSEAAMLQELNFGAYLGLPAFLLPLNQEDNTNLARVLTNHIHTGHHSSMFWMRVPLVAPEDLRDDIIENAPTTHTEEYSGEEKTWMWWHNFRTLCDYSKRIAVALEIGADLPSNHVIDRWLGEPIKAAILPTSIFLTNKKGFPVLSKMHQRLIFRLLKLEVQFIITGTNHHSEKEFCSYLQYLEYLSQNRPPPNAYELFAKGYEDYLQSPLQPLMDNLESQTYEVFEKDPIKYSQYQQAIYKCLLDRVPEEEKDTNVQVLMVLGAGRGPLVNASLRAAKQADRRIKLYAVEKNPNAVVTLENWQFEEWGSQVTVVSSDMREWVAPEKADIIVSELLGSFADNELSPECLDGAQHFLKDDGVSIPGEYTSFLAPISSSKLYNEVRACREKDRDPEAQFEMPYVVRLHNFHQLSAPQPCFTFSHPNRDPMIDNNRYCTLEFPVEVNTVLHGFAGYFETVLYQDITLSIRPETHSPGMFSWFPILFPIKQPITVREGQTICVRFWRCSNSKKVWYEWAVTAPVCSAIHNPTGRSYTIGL
# Sequence of PRMT5/MEP50 complex (Q9BQA1 whole entry, further chain): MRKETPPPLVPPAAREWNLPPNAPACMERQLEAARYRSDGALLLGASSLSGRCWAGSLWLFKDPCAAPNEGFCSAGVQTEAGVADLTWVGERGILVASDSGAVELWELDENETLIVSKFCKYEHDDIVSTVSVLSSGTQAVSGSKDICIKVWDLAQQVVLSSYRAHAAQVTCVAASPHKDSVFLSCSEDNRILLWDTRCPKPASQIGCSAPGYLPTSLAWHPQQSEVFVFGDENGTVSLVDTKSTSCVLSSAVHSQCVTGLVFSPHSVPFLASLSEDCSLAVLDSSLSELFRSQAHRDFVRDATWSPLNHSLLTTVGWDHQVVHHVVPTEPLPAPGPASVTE
# MV4-11 [1] = assay: Antiproliferative activity against human MV4-11 cells supplemented with fresh medium containing compound every 4 days measured on day 8 by Celltiter-glo luminescent cell viability assay; type: functional
# MV4-11 [2] = assay: Antiproliferative activity against human MV4-11 cells supplemented with fresh medium containing compound every 4 days measured on day 12 by Celltiter-glo luminescent cell viability assay; type: functional
# [3] = AUC in Sprague-Dawley rat at 10 mg/kg, po administered via gavage by LC-MS/MS analysis; type: ADME, organism-based; conditions: in vivo
# [4] = Tmax in Sprague-Dawley rat at 10 mg/kg, po administered via gavage by LC-MS/MS analysis; type: ADME, organism-based; conditions: in vivo
# [5] = Elimination half life in Sprague-Dawley rat at 10 mg/kg, po administered via gavage by LC-MS/MS analysis; type: ADME, organism-based; conditions: in vivo, read-out: beta t1/2 (converted)
# [6] = Cmax in Sprague-Dawley rat at 10 mg/kg, po administered via gavage by LC-MS/MS analysis; type: ADME, organism-based; set-up: dose 10 mg/kg, route oral; conditions: in vivo
# [7] = target: Protein arginine N-methyltransferase 5 (Homo sapiens) (UniProt O14744); assay: Inhibition of PRMT5 in human MV411 cells assessed as reduction in SmD3 methylation after 4 days by Western blot analysis; type: cell-based
# Sequence of Protein arginine N-methyltransferase 5 (Homo sapiens) (O14744 whole entry): as the sequence (O14744 whole entry) above
SMILES,IC50 (PRMT5/MEP50 complex) [µM],GI50 (MV4-11 [1]) [µM],GI50 (MV4-11 [2]) [µM],other results
CN1CCc2sc(C(=O)NCC(O)CN3CCc4ccccc4C3)cc2C1 (stereo unspecified),0.475,,,
CN1CCc2[nH]c(C(=O)NCC(O)CN3CCc4ccccc4C3)cc2C1 (stereo unspecified),1.9,,,
Cc1ccc(C(=O)N2CCc3sc(C(=O)NCC(O)CN4CCc5ccccc5C4)cc3C2)cc1 (stereo unspecified),0.0325,0.135,0.11,
CC(c1ccccc1)N1CCc2sc(C(=O)NCC(O)CN3CCc4ccccc4C3)cc2C1 (stereo unspecified),0.06,0.436,0.172,
CN(C)c1ccc(C(=O)N2CCc3ccc(C(=O)NCC(O)CN4CCc5ccccc5C4)cc3C2)cc1 (stereo unspecified),0.04,,,
O=C(NCC(O)CN1CCc2ccccc2C1)c1cc2c(s1)CCN(c1ccccc1)C2 (stereo unspecified),0.26,,,
O=C(NCC(O)CN1CCc2ccccc2C1)c1cc2c(s1)CCN(C(=O)c1cccs1)C2 (stereo unspecified),0.037,0.324,0.168,
O=C(NCC(O)CN1CCc2ccccc2C1)c1cc2c(s1)CCN(C(=O)c1cccc(F)c1)C2 (stereo unspecified),0.0315,0.314,0.166,
O=C(NC[C@H](O)CN1CCc2ccccc2C1)c1cc(NC2COC2)ncn1,,0.212,0.106,
CN1CCc2sc(C(=O)NCC(O)CN3CCc4ccccc4C3)nc2C1 (stereo unspecified),1.2,,,
O=C(NC[C@@H](O)CN1CCc2ccccc2C1)c1ccc2c(c1)CCN(C(=O)c1ccc(Br)cc1)C2,0.059,0.213,0.187,
O=C(NCC(O)CN1CCc2ccccc2C1)c1cc2c(s1)CCN(C1CCOCC1)C2 (stereo unspecified),0.46,,,
COc1ccc(C(=O)N2CCc3cc(C(=O)NC[C@H](O)CN4CCc5ccccc5C4)ccc3C2)cc1.Cl,,,,AUC [3]: 0.0946 µg·h/mL; Tmax [4]: 25 min; half-life [5]: 128 min; Cmax [6]: 0.102 µg/mL
CN(C)c1ccc(C(=O)N2CCc3cc(C(=O)NC[C@H](O)CN4CCc5ccccc5C4)ccc3C2)cc1.Cl,,,,AUC [3]: 0.0158 µg·h/mL; Tmax [4]: 20 min; half-life [5]: 56.7 min; Cmax [6]: 0.0143 µg/mL
COc1ccc(C(=O)N2CCc3cc(C(=O)NC[C@@H](O)CN4CCc5ccccc5C4)ccc3C2)cc1,0.033,0.333,0.213,
O=C(NCC(O)CN1CCc2ccccc2C1)c1cc2c(s1)CCN(C(=O)c1ccc(N3CCC3)cc1)C2 (stereo unspecified),0.044,,,
O=C(NCC(O)CN1CCc2ccccc2C1)c1cc2c(s1)CCN(C(=O)c1ccccc1)C2 (stereo unspecified),0.039,0.184,0.154,
O=C(NCC(O)CN1CCc2ccccc2C1)c1cc2c(s1)CCN(S(=O)(=O)c1ccccc1)C2 (stereo unspecified),0.091,0.375,0.209,
O=C(NCC(O)CN1CCc2ccccc2C1)c1cc2c(s1)CCN(C(=O)Oc1ccccc1)C2 (stereo unspecified),0.05,,,
O=C(NCC(O)CN1CCc2ccccc2C1)c1cc2c(s1)CCN(C(=O)c1ccc(C(F)(F)F)cc1)C2 (stereo unspecified),0.049,0.204,0.134,
O=C(NCC(O)CN1CCc2ccccc2C1)c1cc2c(s1)CCN(C1CCCCC1)C2 (stereo unspecified),0.13,,,
O=C(NC[C@H](O)CN1CCc2ccccc2C1)c1ccc2c(c1)CCN(C(=O)c1ccc(Br)cc1)C2,,,,inhibition [7]: Dose-dependent effect
O=C(NCC(O)CN1CCc2ccccc2C1)c1cc2c(s1)CCN(C(=O)Cc1ccccc1)C2 (stereo unspecified),0.05,0.256,0.147,
O=C(NCC(O)CN1CCc2ccccc2C1)c1cc2c(s1)CCN(C(=O)c1ccncc1)C2 (stereo unspecified),0.045,0.253,0.11,
O=C(NCC(O)CN1CCc2ccccc2C1)c1cc2c(s1)CCN(Cc1ccccc1)C2 (stereo unspecified),0.24,,,
O=C(NCC(O)CN1CCc2ccccc2C1)c1cc2c(s1)CCN(C(=O)c1ccccc1F)C2 (stereo unspecified),0.045,0.261,0.124,
CCCN1CCc2sc(C(=O)NCC(O)CN3CCc4ccccc4C3)cc2C1 (stereo unspecified),1.1,,,
O=C(NCC(O)CN1CCc2ccccc2C1)c1cc2c(s1)CCN(C(=O)CCc1ccccc1)C2 (stereo unspecified),0.047,0.304,0.185,
CN1CCc2oc(C(=O)NCC(O)CN3CCc4ccccc4C3)cc2C1 (stereo unspecified),1.9,,,

# Further compounds by falling IC50 (PRMT5/MEP50 complex), results first:
IC50 (PRMT5/MEP50 complex) [µM],GI50 (MV4-11 [1]) [µM],GI50 (MV4-11 [2]) [µM],SMILES,other results
0.03,0.199,0.126,O=C(NCC(O)CN1CCc2ccccc2C1)c1cc2c(s1)CCN(C(=O)c1ccc(F)cc1)C2 (stereo unspecified),
0.025,0.258,0.135,N#Cc1ccc(C(=O)N2CCc3sc(C(=O)NCC(O)CN4CCc5ccccc5C4)cc3C2)cc1 (stereo unspecified),
0.025,0.239,0.16,O=C(NCC(O)CN1CCc2ccccc2C1)c1cc2c(s1)CCN(C(=O)c1ccco1)C2 (stereo unspecified),
0.023,0.035,0.032,COc1ccc(C(=O)N2CCc3cc(C(=O)NCC(O)CN4CCc5ccccc5C4)ccc3C2)cc1 (stereo unspecified),
0.023,0.197,0.143,CN(C)c1ccc(C(=O)N2CCc3sc(C(=O)NCC(O)CN4CCc5ccccc5C4)cc3C2)cc1 (stereo unspecified),
0.023,0.147,0.162,O=C(NCC(O)CN1CCc2ccccc2C1)c1cc2c(s1)CCN(C(=O)c1ccc(Cl)cc1)C2 (stereo unspecified),
0.023,0.169,0.101,Cc1c(C(=O)NCC(O)CN2CCc3ccccc3C2)sc2c1CN(C(=O)c1ccc(N(C)C)cc1)CC2 (stereo unspecified),
0.022,0.322,0.178,O=C(NCC(O)CN1CCc2ccccc2C1)c1cc2c(s1)CCN(C(=O)c1ccc3ccccc3c1)C2 (stereo unspecified),
0.02,0.216,0.0856,COc1ccc(C(=O)N2CCc3sc(C(=O)NCC(O)CN4CCc5ccccc5C4)cc3C2)cc1 (stereo unspecified),
0.019,0.201,0.141,O=C(NCC(O)CN1CCc2ccccc2C1)c1cc2c(s1)CCN(C(=O)c1ccc([N+](=O)[O-])cc1)C2 (stereo unspecified),
0.019,0.415,0.186,CC(C)(C)c1ccc(C(=O)N2CCc3sc(C(=O)NCC(O)CN4CCc5ccccc5C4)cc3C2)cc1 (stereo unspecified),
0.019,0.193,0.089,CC(=O)c1ccc(C(=O)N2CCc3sc(C(=O)NCC(O)CN4CCc5ccccc5C4)cc3C2)cc1 (stereo unspecified),
0.018,0.181,0.066,O=C(NCC(O)CN1CCc2ccccc2C1)c1cc2c(s1)CCN(C(=O)c1ccc(Br)cc1)C2 (stereo unspecified),
0.017,0.07,0.036,CN(C)c1ccc(C(=O)N2CCc3cc(C(=O)NCC(O)CN4CCc5ccccc5C4)ccc3C2)cc1 (stereo unspecified),
0.017,0.128,0.092,CN(C)c1ccc(C(=O)N2Cc3ccc(C(=O)NCC(O)CN4CCc5ccccc5C4)cc3C2)cc1 (stereo unspecified),
0.013,0.037,0.023,COc1ccc(C(=O)N2CCc3cc(C(=O)NC[C@H](O)CN4CCc5ccccc5C4)ccc3C2)cc1,
0.011,0.075,0.053,CN(C)c1ccc(C(=O)N2CCc3cc(C(=O)NC[C@H](O)CN4CCc5ccccc5C4)ccc3C2)cc1,
0.011,0.045,0.034,O=C(NCC(O)CN1CCc2ccccc2C1)c1ccc2c(c1)CCN(C(=O)c1ccc(Br)cc1)C2 (stereo unspecified),
